# Assay results: US20030162759A1, “Aldosterone blocker therapy to prevent or treat inflammation-related disorders” (priority 2000, published 2003)
# Values joined by “and” are separate entries in the source; they are usually repeats but may differ in a detail not shown here. Equal values may be shown once. “Also recorded” adds a separate entry of the source.
# Key:
# hydroxyproline = experiment: Assay C: myocardial hydroxyproline assay; type: in vivo, rat; settings: for Hydroxyproline, Mean: group mean; for Hydroxyproline: individual rats
# Method: The procedure of Assay B was expanded upon in a further study. […] Myocardial tissue from animals in each treatment group was examined after 7, 14, or 30 days of treatment. […] Lesions were preceded by the expression and progressive upregulation of proinflammatory molecules. […] Prior to surgery the animals were individually weighed and placed in one of the following groups: […] Potassium chloride supplementation was added to the saline solution in order to prevent the potential hypokalemia associated with aldosterone excess. […] Louis, Mo.) was inserted subcutaneously at the nape of the neck. Aldosterone was administered at a dose of […]. […] Animals were sacrificed from each group (n=8-13) after 7, 14, or 30 days of treatment. Following exsanguination, hearts and kidneys were isolated, removed, rinsed in cold phosphate-buffered saline, and blotted dry. […] Myocardial hydroxyproline concentration was measured by a colorimetric assay that quantifies the reaction between oxidized hydroxyproline, and p-dimethylaminobenzaldehyde as described previously (4). […] Dried tissues and a positive collagen control (Bovine Collagen Type I, Sigma, St. […] T. Baker, Phillipsburg, N.J.) for 5 min at 25° C. […] Samples were incubated at 60° C. for 30 min, cooled to room temperature, and absorbance was monitored at 558 nm. Hydroxyproline content was quantitated from a freshly prepared standard curve of trans-4-hydroxy-L-proline (Sigma, St. Louis, Mo.). All samples and standards were performed in duplicate.
# osteopontin = experiment: Assay C: osteopontin relative mRNA expression in heart (TaqMan); type: in vivo, rat; settings: for Osteopontin, Mean / Osteopontin: mRNA; for Osteopontin, Mean: group mean; for Osteopontin: individual rats
# Method: The procedure of Assay B was expanded upon in a further study. […] Myocardial tissue from animals in each treatment group was examined after 7, 14, or 30 days of treatment.
# Potassium chloride supplementation was added to the saline solution in order to prevent the potential hypokalemia associated with aldosterone excess.
# At the time of the surgery, an Alzet 2002 osmotic minipump (Alza Corp., Palo Alto, Calif.) containing either vehicle (9% ethanol/87% propylene glycol/4% dH2O) or 1.0 mg/mL d-aldosterone (Sigma Chemical, St. Louis, Mo.) was inserted subcutaneously at the nape of the neck. Aldosterone was administered at a dose of 0.75 g/hour. […] Animals were sacrificed from each group (n=8-13) after 7, 14, or 30 days of treatment.
# The fluorogenic 5′-nuclease assay (TaqMan PCR) using Applied Biosystems' 7700 Sequence Detection System (Applied Biosystems, Foster City, Calif.) allowed for real time detection/quantitation of a specific gene by monitoring the increase in fluorescence of a gene-specific, dye-labeled oligonucleotide probe. Probes for target and reference genes were labeled at the 5′-end with a 6-carboxyfluorescein (6FAM) reporter dye and at the 3′-end with a 6-carboxy-N,N,N′,N′-tetramethylrhodamine (TAMRA) quencher dye. When the probe was annealed to the target gene, fluorescence of 6FAM was prevented by the close proximity of TAMRA. The exonuclease activity of Taq polymerase released the dyes from the oligonucleotide probe by displacing the probe from the target sequence resulting in fluorescence excitation in direct proportion to the amount of target message present. Data analysis was performed using the Sequence Detection System software from Applied Biosystems.
# All primers and probes were designed using Primer Express software supplied with the 7700 Sequence Detection System and synthesized by Applied Biosystems. Standard curves using 5-fold dilutions of total RNA (from 200 ng to 320 pg) were performed to determine the efficiency of each primer/probe set in the TaqMan reaction prior to the analysis of the experimental samples. Primer/probe sets were designed from known sequences of rat genes to be analyzed. All target gene values were normalized to a reference gene, constitutively expressed cyclophilin. Primer/probe set sequences can be found in Table 8.
# RNA was extracted from frozen (−80° C.) rat heart tissue using the Totally RNA Isolation Kit (Ambion, Inc., Austin, Tex.). Tissue was crushed using a stainless steel mortar and pestle, which had been chilled to −80° C. and transferred to a dounce homogenizer (Kontes, Vineland, N.J.) containing 3-10 mL cold denaturation buffer. Tissue was homogenized and transferred to a sterile, 15 mL polypropylene centrifuge tube. An equal volume of phenol:chloroform:isoamyl alcohol (25:24:1) was added, samples were shaken vigorously for 1 min, and incubated on ice for at least 15 min. Samples were centrifuged for 30 min at 10,000 g. The aqueous phase was removed, 1/10 volume of a sodium acetate solution (3.0 M NaOAc pH 4.5) was added, samples were shaken or inverted for 10 seconds, and acid-phenol (premixed with isoamyl alcohol):chloroform (5:1, Ambion, Inc.) was added at an volume equivalent to the starting sample volume. Samples were shaken vigorously for 1 min, followed by a 15-min incubation on ice, and centrifuged for 30 min at 10,000 g. The aqueous phase removed and placed in a clean polypropylene tube. An equal volume of isopropanol (Sigma, St. Louis, Mo.) was added and the samples were mixed and incubated overnight at −20° C. The samples were centrifuged for 30 min at 10,000 g, the supernatant was removed and the RNA pellet was resuspended in DNAse/RNAse-free water. Samples were frozen at −80° C. for at least 2 hours, thawed on wet ice, and diluted for quantitation.
Structure (SMILES),"Hydroxyproline, Mean (hydroxyproline; 14 days of treatment)","Hydroxyproline, Mean (hydroxyproline; 30 days of treatment)","Hydroxyproline (hydroxyproline; 14 days of treatment, eplerenone 100 mg/kg/day, listed as Eplerenone + aldosterone + salt)","Hydroxyproline (hydroxyproline; 30 days of treatment, eplerenone 100 mg/kg/day, listed as Eplerenone + aldosterone + salt)","Osteopontin, Mean (osteopontin; 7 days of treatment)","Osteopontin, Mean (osteopontin; 14 days of treatment)","Osteopontin, Mean (osteopontin; 30 days of treatment)","Osteopontin (osteopontin; 7 days of treatment, listed as Eplerenone + aldosterone + salt)","Osteopontin (osteopontin; 14 days of treatment, listed as Eplerenone + aldosterone + salt)","Osteopontin (osteopontin; 30 days of treatment, listed as Eplerenone + aldosterone + salt)","Osteopontin mRNA expression in myocardium (osteopontin; time course 7, 14, 30 days, eplerenone 100 mg/kg/day)","Hydroxyproline (hydroxyproline; Table 9.14, 7-day protocol, myocardial, listed as Aldosterone + salt)","Hydroxyproline (hydroxyproline; 14 days of treatment, eplerenone 100 mg/kg/day, listed as Aldosterone + salt)","Hydroxyproline (hydroxyproline; 30 days of treatment, eplerenone 100 mg/kg/day, listed as Aldosterone + salt)","Osteopontin (osteopontin; 7 days of treatment, listed as Aldosterone + salt)"
"COC(=O)[C@@H]1CC2=CC(=O)CC[C@]2(C)[C@@]23O[C@@H]2C[C@@]2(C)[C@@H](CC[C@@]24CCC(=O)O4)[C@H]13 [eplerenone, Pregn-4-ene-7,21-dicarboxylic acid, 9,11-epoxy-17-hydroxy-3-oxo-, γ-lactone, methyl ester, (7α, 11α, 17β) -]",4.46 µg/mg,4.10 µg/mg,6.80 µg/mg,6.40 µg/mg,0.75 AU,2.94 AU,2.59 AU,0.54 AU and 0.52 AU and 0.27 AU and 0.60 AU and 0.96 AU and 0.75 AU,1.00 AU and 0.77 AU and 1.59 AU and 0.72 AU and 0.99 AU,1.28 AU,significantly reduced; also recorded: inhibition of early time-course expression of myocardial osteopontin,–,–,–,–
C[C@]12CCC(=O)C=C1CC[C@@H]1[C@@H]2[C@@H](O)C[C@]2(C=O)[C@@H](C(=O)CO)CC[C@@H]12 [aldosterone],–,–,–,–,–,6.56 AU,13.27 AU,–,–,–,–,2.10 µg/mg,2.60 µg/mg and 3.00 µg/mg,4.00 µg/mg,0.84 AU and 0.95 AU and 1.08 AU
